Legend:
Assay type in all cases: biochemical
human JAK3 (aa 795-1124) = molecular target: T1, human JAK3 (aa 795-1124) (Homo sapiens, UniProt P52333); assay: In vitro JAK kinase assay (TR-FRET), JAK3; settings: catalytic domain GST-fusion; ATP 0.6 μM; poly (GT)-Biotin 140 nM; 30 minutes at room temperature
T1 construct: JAK3 (aa 795-1124); GST (N); purchased Carna Biosciences; host or cells: baculovirus expression system
Experimental: (§1) Compounds were screened for their ability to inhibit JAK1, JAK2 and JAK3 using the assays as indicated below.
(§2) The catalytic domains of human JAK1 (aa 850-1154), JAK2 (aa 826-1132), JAK3 (aa 795-1124) and Tyk2 (aa 871-1187) were expressed as N-terminal GST-fusion proteins using a baculovirus expression system and were purchased from Carna Biosciences. The enzymatic activity was assayed using as substrate a biotinylated peptide, poly (GT)-Biotin (CisBio). The peptide concentration in the reactions was 60 nM for JAK1, […], 140 nM for JAK3 and 50 nM for Tyk2. The degree of phosphorylation was detected by TR-FRET (time-resolved fluorescence energy transfer).
(§3) IC50s of compounds were measured for each kinase in a reaction mixture containing the enzyme, ATP and the peptide in 8 mM MOPS (pH 7.0), 10 mM MgCl2, 0.05% […], 0.45 mg/ml BSA. The ATP concentration in the reactions was 3 μM for JAK1, 0.2 μM for JAK2, 0.6 μM for JAK3 and 1.8 μM for Tyk2. The enzymatic reactions took place for 30 minutes at room temperature. Then, the reactions were stopped with 20 μL of quench detection buffer (50 mM HEPES, 0.5 M KF, EDTA 0.25 M, 0.1% (w/v) BSA, pH 7.5) containing 0.115 μg/mL of anti-phosphoTyr (PT66)-Cryptate (CisBio) and a variable concentration of SA-XL665 (CisBio) to keep the SA-B ratio constant. Incubate for 3 h and read on Victor 2V spectrofluorometer (PerkinElmer) set to read fluorescence resonance energy transfer.

human JAK2 (aa 826-1132) = molecular target: T2, human JAK2 (aa 826-1132) (Homo sapiens, UniProt O60674); assay: In vitro JAK kinase assay (TR-FRET), JAK2; settings: catalytic domain GST-fusion; ATP 0.2 μM; poly (GT)-Biotin; 30 minutes at room temperature
T2 construct: JAK2 (aa 826-1132); GST (N); purchased Carna Biosciences; host or cells: baculovirus expression system
Experimental: as §1, §2, §3

human JAK1 (aa 850-1154) = molecular target: T3, human JAK1 (aa 850-1154) (Homo sapiens, UniProt P23458); assay: In vitro JAK kinase assay (TR-FRET), JAK1; settings: catalytic domain GST-fusion; ATP 3 μM; poly (GT)-Biotin 60 nM; 30 minutes at room temperature
T3 construct: human JAK1 (aa 850-1154); GST (N); purchased Carna Biosciences; host or cells: baculovirus expression system
Experimental: as §1, §2, §3

T1 sequence (P52333 795-1124): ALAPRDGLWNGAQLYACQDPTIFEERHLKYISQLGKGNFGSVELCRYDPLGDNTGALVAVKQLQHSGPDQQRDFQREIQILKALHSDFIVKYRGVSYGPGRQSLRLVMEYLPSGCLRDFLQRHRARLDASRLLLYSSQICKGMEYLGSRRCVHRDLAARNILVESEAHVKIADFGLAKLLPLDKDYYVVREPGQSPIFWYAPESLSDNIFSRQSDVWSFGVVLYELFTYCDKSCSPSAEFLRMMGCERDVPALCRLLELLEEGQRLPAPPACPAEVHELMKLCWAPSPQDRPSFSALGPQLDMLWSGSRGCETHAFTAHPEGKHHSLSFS
T2 sequence (O60674 826-1132): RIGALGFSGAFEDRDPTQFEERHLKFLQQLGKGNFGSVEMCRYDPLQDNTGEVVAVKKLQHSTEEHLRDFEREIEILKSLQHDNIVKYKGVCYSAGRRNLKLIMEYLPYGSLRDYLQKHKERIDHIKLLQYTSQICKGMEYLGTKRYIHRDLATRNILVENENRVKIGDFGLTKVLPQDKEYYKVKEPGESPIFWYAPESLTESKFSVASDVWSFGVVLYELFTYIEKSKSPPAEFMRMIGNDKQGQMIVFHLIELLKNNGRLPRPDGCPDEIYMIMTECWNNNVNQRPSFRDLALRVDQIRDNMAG
T3 sequence (P23458 850-1154): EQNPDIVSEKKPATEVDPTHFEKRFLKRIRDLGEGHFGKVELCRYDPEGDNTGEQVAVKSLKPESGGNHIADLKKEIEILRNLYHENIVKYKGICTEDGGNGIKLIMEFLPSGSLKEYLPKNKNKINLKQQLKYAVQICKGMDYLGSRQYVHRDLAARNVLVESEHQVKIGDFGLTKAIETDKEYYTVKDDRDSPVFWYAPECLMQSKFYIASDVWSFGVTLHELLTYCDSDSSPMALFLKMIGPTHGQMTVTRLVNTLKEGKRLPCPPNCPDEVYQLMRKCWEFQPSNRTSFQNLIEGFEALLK

## Cc1cc2ncc(-c3ccc[nH]c3=O)n2nc1N[C@@H](C)c1ccc(F)cn1 [Example 9, 3-(6-{[(1S)-1-(5-Fluoropyridin-2-yl)ethyl]amino}-7-methylimidazo[1,2-b]pyridazin-3-yl)pyridin-2(1H)-one]
Human JAK3 (aa 795-1124)
  IC50: < 100 nM
Human JAK2 (aa 826-1132)
  IC50: < 100 nM
Human JAK1 (aa 850-1154)
  IC50: < 100 nM

## C[C@H](Nc1ccc2ncn(-c3cc(Cl)c[nH]c3=O)c2n1)c1ccc(F)cn1 [Example 13, 5-Chloro-3-(5-{[(1S)-1-(5-fluoropyridin-2-yl)ethyl]amino}-3H-imidazo[4,5-b]pyridin-3-yl)pyridin-2(1H)-one]
Human JAK3 (aa 795-1124)
  IC50: < 100 nM
Human JAK2 (aa 826-1132)
  IC50: < 100 nM
Human JAK1 (aa 850-1154)
  IC50: < 100 nM

## N#CCC(=O)N1CCC[C@@H](Nc2ccc3ncc(-c4ccc[nH]c4=O)n3n2)C1 [Example 1, 3-Oxo-3-((3R)-3-{[3-(2-oxo-1,2-dihydropyridin-3-yl)imidazo[1,2-b]pyridazin-6-yl]amino}piperidin-1-yl)propanenitrile]
Human JAK3 (aa 795-1124)
  IC50: < 100 nM
Human JAK2 (aa 826-1132)
  IC50: < 100 nM
Human JAK1 (aa 850-1154)
  IC50: < 100 nM

## C[C@H](Nc1ccc2ncc(-c3ccc[nH]c3=O)n2n1)c1ncc(F)cn1 [Example 5, 3-(6-{[(1S)-1-(5-Fluoropyrimidin-2-yl)ethyl]amino}imidazo[1,2-b]pyridazin-3-yl)pyridin-2(1H)-one]
Human JAK3 (aa 795-1124)
  IC50: < 100 nM
Human JAK2 (aa 826-1132)
  IC50: < 100 nM
Human JAK1 (aa 850-1154)
  IC50: < 100 nM

## C[C@@H](Nc1ccc2ncc(-c3ccc[nH]c3=O)n2n1)c1ccc(F)cn1 [Example 4, 3-(6-{[(1R)-1-(5-Fluoropyridin-2-yl)ethyl]amino}imidazo[1,2-b]pyridazin-3-yl) pyridin-2(1H)-one]
Human JAK3 (aa 795-1124)
  IC50: < 100 nM
Human JAK2 (aa 826-1132)
  IC50: < 100 nM
Human JAK1 (aa 850-1154)
  IC50: 100 to 1000 nM

## C[C@H](Nc1ccc2ncc(-c3cc(Cl)c[nH]c3=O)n2n1)c1ccc(F)cn1 [Example 8, 5-Chloro-3-(6-{[(1S)-1-(5-fluoropyridin-2-yl)ethyl]amino}imidazo[1,2-b]pyridazin-3-yl)pyridin-2(1H)-one]
Human JAK3 (aa 795-1124)
  IC50: < 100 nM
Human JAK2 (aa 826-1132)
  IC50: < 100 nM
Human JAK1 (aa 850-1154)
  IC50: < 100 nM

## C[C@H](Nc1ccc2ncc(-c3ccn[nH]c3=O)n2n1)c1ccccc1 [Example 6, 4-(6-{[(1S)-1-Phenylethyl]amino}imidazo[1,2-b]pyridazin-3-yl)pyridazin-3(2H)-one]
Human JAK3 (aa 795-1124)
  IC50: < 100 nM
Human JAK2 (aa 826-1132)
  IC50: < 100 nM
Human JAK1 (aa 850-1154)
  IC50: 100 to 1000 nM

— patent US9133200B2, “Imidazo[1,2-b]pyridazine and imidazo[4,5-b]pyridine derivatives as JAK inhibitors” (Almirall, S.A., priority 2010, dated 2015)
